Literature values, collected in patent US20110263720A1, “SYNTHESIS OF ALPHA-TOCOPHEROLQUINONE DERIVATIVES, AND METHODS OF USING THE SAME” (Penwest Pharmaceuticals Co., priority 2010, published 2011).

Tested on: mitochondrial function
Conditions: in vitro; compared with CoQ10; background statement, no data

SMILES: CC1=C(C)C(=O)C(CC[C@](C)(O)CCC[C@H](C)CCC[C@H](C)CCCC(C)C)=C(C)C1=O [R,R,R-alpha-tocopherolquinone]
- potency in enhancing mitochondrial function: far more potent than CoQ^10
